{"source": "the NIST ThermoML archive (doi:10.1021/je0301794)", "key": {"[1]": {"assay": "xn = mol fraction of the nth substance listed", "settings": "101.3 kPa, Liquid"}, "[2]": {"assay": "excess molar enthalpy (molar enthalpy of mixing); xn = mol fraction of the nth substance listed", "settings": "318.15 K, 101.3 kPa, Liquid"}}, "note": "± gives the expanded uncertainty stated by the source.", "data": [{"smiles": "COC(=O)OC", "note": "[dimethyl carbonate] + CCCCCCCC", "values": [{"measurement": "mass density", "setting": "[1]; 293.15 K, x1 = 0.0513", "result": "711.1 ± 0.5", "unit": "kg/m3"}, {"measurement": "mass density", "setting": "[1]; 293.15 K, x1 = 0.0997", "result": "719.8 ± 0.5", "unit": "kg/m3"}, {"measurement": "mass density", "setting": "[1]; 293.15 K, x1 = 0.2027", "result": "740.5 ± 0.5", "unit": "kg/m3"}, {"measurement": "mass density", "setting": "[1]; 293.15 K, x1 = 0.3063", "result": "764.5 ± 0.5", "unit": "kg/m3"}, {"measurement": "mass density", "setting": "[1]; 293.15 K, x1 = 0.3994", "result": "789.1 ± 0.5", "unit": "kg/m3"}, {"measurement": "mass density", "setting": "[1]; 293.15 K, x1 = 0.5123", "result": "823.6 ± 0.5", "unit": "kg/m3"}, {"measurement": "mass density", "setting": "[1]; 293.15 K, x1 = 0.6078", "result": "857.4 ± 0.5", "unit": "kg/m3"}, {"measurement": "mass density", "setting": "[1]; 293.15 K, x1 = 0.7137", "result": "901.2 ± 0.5", "unit": "kg/m3"}, {"measurement": "mass density", "setting": "[1]; 293.15 K, x1 = 0.8055", "result": "945.8 ± 0.5", "unit": "kg/m3"}, {"measurement": "mass density", "setting": "[1]; 293.15 K, x1 = 0.9061", "result": "1004 ± 0.5", "unit": "kg/m3"}, {"measurement": "mass density", "setting": "[1]; 293.15 K, x1 = 0.9516", "result": "1034.3 ± 0.5", "unit": "kg/m3"}, {"measurement": "mass density", "setting": "[1]; 293.15 K, x1 = 1", "result": "1070 ± 0.6", "unit": "kg/m3"}, {"measurement": "mass density", "setting": "[1]; 298.15 K, x1 = 0.0558", "result": "707.8 ± 0.5", "unit": "kg/m3"}, {"measurement": "mass density", "setting": "[1]; 298.15 K, x1 = 0.096", "result": "715 ± 0.5", "unit": "kg/m3"}, {"measurement": "mass density", "setting": "[1]; 298.15 K, x1 = 0.1488", "result": "725.1 ± 0.5", "unit": "kg/m3"}, {"measurement": "mass density", "setting": "[1]; 298.15 K, x1 = 0.2289", "result": "741.8 ± 0.5", "unit": "kg/m3"}, {"measurement": "mass density", "setting": "[1]; 298.15 K, x1 = 0.2947", "result": "756.9 ± 0.5", "unit": "kg/m3"}, {"measurement": "mass density", "setting": "[1]; 298.15 K, x1 = 0.4216", "result": "790.4 ± 0.5", "unit": "kg/m3"}, {"measurement": "mass density", "setting": "[1]; 298.15 K, x1 = 0.4883", "result": "810.6 ± 0.5", "unit": "kg/m3"}, {"measurement": "mass density", "setting": "[1]; 298.15 K, x1 = 0.4968", "result": "813.3 ± 0.5", "unit": "kg/m3"}, {"measurement": "mass density", "setting": "[1]; 298.15 K, x1 = 0.5931", "result": "846.6 ± 0.5", "unit": "kg/m3"}, {"measurement": "mass density", "setting": "[1]; 298.15 K, x1 = 0.6867", "result": "884.1 ± 0.5", "unit": "kg/m3"}, {"measurement": "mass density", "setting": "[1]; 298.15 K, x1 = 0.7879", "result": "931.6 ± 0.5", "unit": "kg/m3"}, {"measurement": "mass density", "setting": "[1]; 298.15 K, x1 = 0.8873", "result": "987.1 ± 0.5", "unit": "kg/m3"}, {"measurement": "mass density", "setting": "[1]; 298.15 K, x1 = 0.9502", "result": "1027.7 ± 0.5", "unit": "kg/m3"}, {"measurement": "mass density", "setting": "[1]; 298.15 K, x1 = 1", "result": "1063.5 ± 0.6", "unit": "kg/m3"}, {"measurement": "mass density", "setting": "[1]; 303.15 K, x1 = 0.0519", "result": "702.9 ± 0.5", "unit": "kg/m3"}, {"measurement": "mass density", "setting": "[1]; 303.15 K, x1 = 0.0827", "result": "708.3 ± 0.5", "unit": "kg/m3"}, {"measurement": "mass density", "setting": "[1]; 303.15 K, x1 = 0.1947", "result": "729.9 ± 0.5", "unit": "kg/m3"}, {"measurement": "mass density", "setting": "[1]; 303.15 K, x1 = 0.2829", "result": "749.4 ± 0.5", "unit": "kg/m3"}, {"measurement": "mass density", "setting": "[1]; 303.15 K, x1 = 0.3948", "result": "778.1 ± 0.5", "unit": "kg/m3"}, {"measurement": "mass density", "setting": "[1]; 303.15 K, x1 = 0.4942", "result": "807.5 ± 0.5", "unit": "kg/m3"}, {"measurement": "mass density", "setting": "[1]; 303.15 K, x1 = 0.5964", "result": "842.4 ± 0.5", "unit": "kg/m3"}, {"measurement": "mass density", "setting": "[1]; 303.15 K, x1 = 0.6983", "result": "883.1 ± 0.5", "unit": "kg/m3"}, {"measurement": "mass density", "setting": "[1]; 303.15 K, x1 = 0.7886", "result": "925.2 ± 0.5", "unit": "kg/m3"}, {"measurement": "mass density", "setting": "[1]; 303.15 K, x1 = 0.8946", "result": "984.3 ± 0.5", "unit": "kg/m3"}, {"measurement": "mass density", "setting": "[1]; 303.15 K, x1 = 0.9545", "result": "1023.4 ± 0.5", "unit": "kg/m3"}, {"measurement": "mass density", "setting": "[1]; 303.15 K, x1 = 1", "result": "1056.5 ± 0.6", "unit": "kg/m3"}, {"measurement": "mass density", "setting": "[1]; 313.15 K, x1 = 0.0512", "result": "694.5 ± 0.5", "unit": "kg/m3"}, {"measurement": "mass density", "setting": "[1]; 313.15 K, x1 = 0.1005", "result": "703 ± 0.5", "unit": "kg/m3"}, {"measurement": "mass density", "setting": "[1]; 313.15 K, x1 = 0.186", "result": "719.2 ± 0.5", "unit": "kg/m3"}, {"measurement": "mass density", "setting": "[1]; 313.15 K, x1 = 0.301", "result": "744.5 ± 0.5", "unit": "kg/m3"}, {"measurement": "mass density", "setting": "[1]; 313.15 K, x1 = 0.4072", "result": "771.6 ± 0.5", "unit": "kg/m3"}, {"measurement": "mass density", "setting": "[1]; 313.15 K, x1 = 0.5002", "result": "799.1 ± 0.5", "unit": "kg/m3"}, {"measurement": "mass density", "setting": "[1]; 313.15 K, x1 = 0.6042", "result": "834.5 ± 0.5", "unit": "kg/m3"}, {"measurement": "mass density", "setting": "[1]; 313.15 K, x1 = 0.709", "result": "876.3 ± 0.5", "unit": "kg/m3"}, {"measurement": "mass density", "setting": "[1]; 313.15 K, x1 = 0.7993", "result": "918.8 ± 0.5", "unit": "kg/m3"}, {"measurement": "mass density", "setting": "[1]; 313.15 K, x1 = 0.8465", "result": "944 ± 0.5", "unit": "kg/m3"}, {"measurement": "mass density", "setting": "[1]; 313.15 K, x1 = 0.9524", "result": "1009.1 ± 0.5", "unit": "kg/m3"}, {"measurement": "mass density", "setting": "[1]; 313.15 K, x1 = 1", "result": "1043.4 ± 0.5", "unit": "kg/m3"}, {"measurement": "mass density", "setting": "[1]; 318.15 K, x1 = 0.0823", "result": "695.4 ± 0.5", "unit": "kg/m3"}, {"measurement": "mass density", "setting": "[1]; 318.15 K, x1 = 0.1827", "result": "714.2 ± 0.5", "unit": "kg/m3"}, {"measurement": "mass density", "setting": "[1]; 318.15 K, x1 = 0.2965", "result": "738.7 ± 0.5", "unit": "kg/m3"}, {"measurement": "mass density", "setting": "[1]; 318.15 K, x1 = 0.3626", "result": "754.9 ± 0.5", "unit": "kg/m3"}, {"measurement": "mass density", "setting": "[1]; 318.15 K, x1 = 0.436", "result": "774.6 ± 0.5", "unit": "kg/m3"}, {"measurement": "mass density", "setting": "[1]; 318.15 K, x1 = 0.5156", "result": "798.6 ± 0.5", "unit": "kg/m3"}, {"measurement": "mass density", "setting": "[1]; 318.15 K, x1 = 0.5606", "result": "813.4 ± 0.5", "unit": "kg/m3"}, {"measurement": "mass density", "setting": "[1]; 318.15 K, x1 = 0.6305", "result": "838.7 ± 0.5", "unit": "kg/m3"}, {"measurement": "mass density", "setting": "[1]; 318.15 K, x1 = 0.6756", "result": "856.4 ± 0.5", "unit": "kg/m3"}, {"measurement": "mass density", "setting": "[1]; 318.15 K, x1 = 0.7428", "result": "885.6 ± 0.5", "unit": "kg/m3"}, {"measurement": "mass density", "setting": "[1]; 318.15 K, x1 = 0.7845", "result": "905.6 ± 0.5", "unit": "kg/m3"}, {"measurement": "mass density", "setting": "[1]; 318.15 K, x1 = 0.8233", "result": "925.5 ± 0.5", "unit": "kg/m3"}, {"measurement": "mass density", "setting": "[1]; 318.15 K, x1 = 0.8711", "result": "951.7 ± 0.5", "unit": "kg/m3"}, {"measurement": "mass density", "setting": "[1]; 318.15 K, x1 = 0.9071", "result": "973.5 ± 0.5", "unit": "kg/m3"}, {"measurement": "mass density", "setting": "[1]; 318.15 K, x1 = 0.964", "result": "1010.8 ± 0.5", "unit": "kg/m3"}, {"measurement": "mass density", "setting": "[1]; 318.15 K, x1 = 0.9761", "result": "1019.5 ± 0.5", "unit": "kg/m3"}, {"measurement": "mass density", "setting": "[1]; 318.15 K, x1 = 1", "result": "1036.9 ± 0.5", "unit": "kg/m3"}, {"measurement": "excess molar enthalpy", "setting": "[2]; x1 = 0.0844", "result": "0.687 ± 0.016", "unit": "kJ/mol"}, {"measurement": "excess molar enthalpy", "setting": "[2]; x1 = 0.1746", "result": "1.25 ± 0.027", "unit": "kJ/mol"}, {"measurement": "excess molar enthalpy", "setting": "[2]; x1 = 0.2622", "result": "1.69 ± 0.036", "unit": "kJ/mol"}, {"measurement": "excess molar enthalpy", "setting": "[2]; x1 = 0.3463", "result": "1.99 ± 0.042", "unit": "kJ/mol"}, {"measurement": "excess molar enthalpy", "setting": "[2]; x1 = 0.4232", "result": "2.15 ± 0.045", "unit": "kJ/mol"}, {"measurement": "excess molar enthalpy", "setting": "[2]; x1 = 0.4922", "result": "2.21 ± 0.046", "unit": "kJ/mol"}, {"measurement": "excess molar enthalpy", "setting": "[2]; x1 = 0.5544", "result": "2.21 ± 0.046", "unit": "kJ/mol"}, {"measurement": "excess molar enthalpy", "setting": "[2]; x1 = 0.6104", "result": "2.16 ± 0.045", "unit": "kJ/mol"}, {"measurement": "excess molar enthalpy", "setting": "[2]; x1 = 0.6455", "result": "2.11 ± 0.044", "unit": "kJ/mol"}, {"measurement": "excess molar enthalpy", "setting": "[2]; x1 = 0.683", "result": "2.04 ± 0.043", "unit": "kJ/mol"}, {"measurement": "excess molar enthalpy", "setting": "[2]; x1 = 0.7224", "result": "1.93 ± 0.041", "unit": "kJ/mol"}, {"measurement": "excess molar enthalpy", "setting": "[2]; x1 = 0.7671", "result": "1.75 ± 0.037", "unit": "kJ/mol"}, {"measurement": "excess molar enthalpy", "setting": "[2]; x1 = 0.8115", "result": "1.54 ± 0.033", "unit": "kJ/mol"}, {"measurement": "excess molar enthalpy", "setting": "[2]; x1 = 0.8562", "result": "1.29 ± 0.028", "unit": "kJ/mol"}, {"measurement": "excess molar enthalpy", "setting": "[2]; x1 = 0.8987", "result": "0.995 ± 0.022", "unit": "kJ/mol"}, {"measurement": "excess molar enthalpy", "setting": "[2]; x1 = 0.9358", "result": "0.697 ± 0.016", "unit": "kJ/mol"}, {"measurement": "excess molar enthalpy", "setting": "[2]; x1 = 0.9713", "result": "0.349 ± 0.009", "unit": "kJ/mol"}, {"measurement": "excess molar enthalpy", "setting": "[2]; x1 = 1", "result": "0 ± 0.002", "unit": "kJ/mol"}]}]}
